Data on five compounds can be found in patent US12146004B2, “Polymyxin compounds and uses thereof” (priority 2014, dated 2024).

Values after ≈ are worked out from the molar mass of the structure shown. Numbered stars: 1 amine (or outer) side, 2 acyl side, 3 side chain; on linkers, the order of the positions; unused ones are H or OH. Bridge positions count the residues as written; N and C are the ends. Square brackets hold non-standard residues; d marks the D form. Peptide text beside a SMILES is read from it. * marks the point of attachment. ξ: configuration not given here. X17 = CCCCCCN([C@@H](CCN)C(=O)[*:2])[*:1]; X23 = NCC[C@H](OCc1ccccc1)C(=O)*; dCha = N[C@H](CC1CCCCC1)C(=O)O; Thr(3ξ) = CC(O)[C@H](N)C(=O)O; X1 = CC(C)CN1CCNC[C@H]1C(=O)*; X20 = NCC(Cc1ccccc1F)C(=O)*; X22 = NC(CCC(=O)*)C1CCCCC1; Dab = NCC[C@H](N)C(=O)O; Dap = NC[C@H](N)C(=O)O Where only a bound is given, the exact number is not on record here.

Common to all, as to format: cell-based
One test relates to Acinetobacter baumannii. A digest of the protocol:
(§1)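 Values are minimum inhibitory concentrations in μg/mL, measured across a panel of up to nine strains of each Gram-negative pathogen, some Polymyxin-elevated or resistant.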

For a further test, the system named is Escherichia coli. The method in brief: as §1
For the next test, the system named is Klebsiella pneumoniae. A digest of the protocol: as §1
A further test concerns Pseudomonas aeruginosa. The method in brief: as §1

Take `CC(C)C[C@@H]1NC(=O)[C@@H](CC2CCCCC2)NC(=O)[C@H](CCN)NC(=O)[C@@H](NC(=O)[C@H](CN)NC(=O)[C@@H](NC(=O)[C@H](CCN)OCc2ccccc2)C(C)O)CCNC(=O)[C@H]([C@@H](C)O)NC(=O)[C@H](CCN)NC(=O)[C@H](CCN)NC1=O` (stereo partly drawn) [Example 48, (S)-4-amino-2-(benzyloxy) butanoyl L-Thr-L-Dap-polymyxin [D-cyclohexylalanine]-6 heptapeptide.] (X23-[Thr(3ξ)][Dap][Dab][Dab][dCha]L[Dab][Dab]T; lactam 3-C): in the test with Acinetobacter baumannii, the “MIC A. baumanii 053” value is greater than 64 µg/mL, the “MIC A. baumanii 056” value was determined as 32 µg/mL (≈ 27.9 µM), the “MIC A. baumanii ATCC BAA-747” value came out at 0.125 µg/mL (≈ 0.109 µM) and the “MIC A. baumanii NCTC 13424” value is 0.25 µg/mL (≈ 0.218 µM). In the test on Escherichia coli, the “MIC E. coli 058” value was found to be 4 µg/mL (≈ 3.49 µM), the “MIC E. coli 061” value was determined as 32 µg/mL (≈ 27.9 µM) and the “MIC E. coli ATCC 25922” value is 0.125 µg/mL (≈ 0.109 µM). In the test with Klebsiella pneumoniae, the “MIC K. pneumoniae 063” value is 64 µg/mL (≈ 55.8 µM), the “MIC K. pneumoniae 065” value came to 5 µg/mL (≈ 4.36 µM) and the “MIC K. pneumoniae ATCC 13882” value is 0.125 µg/mL (≈ 0.109 µM). Besides, in the test with Pseudomonas aeruginosa, the “MIC P. aeruginosa 068” value came to 8 µg/mL (≈ 6.98 µM), the “MIC P. aeruginosa 070” value is 16 µg/mL (≈ 14 µM), the “MIC P. aeruginosa ATCC 27853” value was determined as 0.25 µg/mL (≈ 0.218 µM) and the “MIC P. aeruginosa CCUG 59347” value amounted to 0.25 µg/mL (≈ 0.218 µM).
For `CCCCCCN[C@@H](CCN)C(=O)N[C@H](C(=O)N[C@@H](CN)C(=O)N[C@H]1CCNC(=O)[C@H]([C@@H](C)O)NC(=O)[C@H](CCN)NC(=O)[C@H](CCN)NC(=O)[C@H](CC(C)C)NC(=O)[C@@H](CC2CCCCC2)NC(=O)[C@H](CCN)NC1=O)C(C)O` (stereo partly drawn) [Example 49, (S)-4-amino-2-(hexylamino) butanoyl L-Thr-L-Dap-polymyxin [D-cyclohexylalanine]-6 heptapeptide.] (H-[X17][Thr(3ξ)][Dap][Dab][Dab][dCha]L[Dab][Dab]T; lactam 4-C), in the test with Acinetobacter baumannii, the “MIC A. baumanii 053” value amounted to 64 µg/mL (≈ 56.2 µM), the “MIC A. baumanii 056” value was found to be 64 µg/mL (≈ 56.2 µM), the “MIC A. baumanii ATCC BAA-747” value turned out to be 0.5 µg/mL (≈ 0.439 µM) and the “MIC A. baumanii NCTC 13424” value turned out to be 0.25 µg/mL (≈ 0.219 µM). Further, in the test with Escherichia coli, the “MIC E. coli 058” value stood at 2 µg/mL (≈ 1.76 µM), the “MIC E. coli 061” value is 16 µg/mL (≈ 14 µM), the “MIC E. coli ATCC 25922” value is 0.5 µg/mL (≈ 0.439 µM) and the “MIC E. coli NCTC 9001” value was determined as 0.125 µg/mL (≈ 0.11 µM). In the test on Klebsiella pneumoniae, the “MIC K. pneumoniae 063” value came out at 32 µg/mL (≈ 28.1 µM), the “MIC K. pneumoniae 065” value stood at 2 µg/mL (≈ 1.76 µM) and the “MIC K. pneumoniae ATCC 13882” value is 0.5 µg/mL (≈ 0.439 µM). In addition, in the test with Pseudomonas aeruginosa, the “MIC P. aeruginosa 068” value was found to be 2 µg/mL (≈ 1.76 µM), the “MIC P. aeruginosa 070” value came out at 2 µg/mL (≈ 1.76 µM), the “MIC P. aeruginosa ATCC 27853” value came to 0.25 µg/mL (≈ 0.219 µM) and the “MIC P. aeruginosa CCUG 59347” value is 0.25 µg/mL (≈ 0.219 µM).
Turning to `CC(C)C[C@@H]1NC(=O)[C@@H](CC2CCCCC2)NC(=O)[C@H](CCN)NC(=O)[C@@H](NC(=O)[C@H](CCN)NC(=O)[C@@H](NC(=O)[C@@H]2CNCCN2CC(C)C)C(C)O)CCNC(=O)[C@H]([C@@H](C)O)NC(=O)[C@H](CCN)NC(=O)[C@H](CCN)NC1=O` (stereo partly drawn) [Example 52, (S)-1-isobutylpiperazine-2-carbonyl polymyxin [D-cyclohexylalanine]-6 nonapeptide] (X1-[Thr(3ξ)][Dab][Dab][Dab][dCha]L[Dab][Dab]T; lactam 3-C), in the test on Acinetobacter baumannii, the “MIC A. baumanii 053” value was greater than 64 µg/mL, the “MIC A. baumanii 056” value was greater than 64 µg/mL, the “MIC A. baumanii ATCC BAA-747” value stood at 0.25 µg/mL (≈ 0.22 µM) and the “MIC A. baumanii NCTC 13424” value worked out at 0.25 µg/mL (≈ 0.22 µM). Besides, in the test on Escherichia coli, the “MIC E. coli 058” value stood at 8 µg/mL (≈ 7.03 µM), the “MIC E. coli 061” value was 16 µg/mL (≈ 14.1 µM) and the “MIC E. coli ATCC 25922” value is 0.25 µg/mL (≈ 0.22 µM). Further, in the test on Klebsiella pneumoniae, the “MIC K. pneumoniae 063” value was 64 µg/mL (≈ 56.3 µM), the “MIC K. pneumoniae 065” value came to 8 µg/mL (≈ 7.03 µM) and the “MIC K. pneumoniae ATCC 13882” value amounted to 0.25 µg/mL (≈ 0.22 µM). Besides, in the test with Pseudomonas aeruginosa, the “MIC P. aeruginosa 068” value came to 16 µg/mL (≈ 14.1 µM), the “MIC P. aeruginosa 070” value was 16 µg/mL (≈ 14.1 µM), the “MIC P. aeruginosa ATCC 27853” value was found to be 0.5 µg/mL (≈ 0.44 µM) and the “MIC P. aeruginosa CCUG 59347” value stood at 1 µg/mL (≈ 0.879 µM).
On to `CC(C)C[C@@H]1NC(=O)[C@@H](CC2CCCCC2)NC(=O)[C@H](CCN)NC(=O)[C@@H](NC(=O)[C@H](CCN)NC(=O)[C@@H](NC(=O)C(CN)Cc2ccccc2F)[C@@H](C)O)CCNC(=O)[C@H]([C@@H](C)O)NC(=O)[C@H](CCN)NC(=O)[C@H](CCN)NC1=O` (some centres unmarked) [Example 62, 3-amino-2-(2-fluorobenzyl) propanoyl] (X20-T[Dab][Dab][Dab][dCha]L[Dab][Dab]T; lactam 3-C), for which, in the test with Acinetobacter baumannii, the “MIC A. baumanii 053” value was greater than 64 µg/mL, the “MIC A. baumanii 056” value was greater than 64 µg/mL, the “MIC A. baumanii ATCC BAA-747” value worked out at 0.5 µg/mL (≈ 0.435 µM) and the “MIC A. baumanii NCTC 13424” value came to 0.5 µg/mL (≈ 0.435 µM). For the same compound, in the test on Escherichia coli, the “MIC E. coli 058” value came out at 4 µg/mL (≈ 3.48 µM), the “MIC E. coli 061” value amounted to 32 µg/mL (≈ 27.9 µM) and the “MIC E. coli ATCC 25922” value came to 0.125 µg/mL (≈ 0.109 µM). In addition, in the test on Klebsiella pneumoniae, the “MIC K. pneumoniae 063” value is 64 µg/mL (≈ 55.7 µM), the “MIC K. pneumoniae 065” value was 8 µg/mL (≈ 6.97 µM) and the “MIC K. pneumoniae ATCC 13882” value is 0.125 µg/mL (≈ 0.109 µM). In the test with Pseudomonas aeruginosa, the “MIC P. aeruginosa 068” value was found to be 8 µg/mL (≈ 6.97 µM), the “MIC P. aeruginosa 070” value came to 16 µg/mL (≈ 13.9 µM), the “MIC P. aeruginosa ATCC 27853” value worked out at 0.5 µg/mL (≈ 0.435 µM) and the “MIC P. aeruginosa CCUG 59347” value is 0.5 µg/mL (≈ 0.435 µM).
Regarding `CC(C)C[C@@H]1NC(=O)[C@@H](CC2CCCCC2)NC(=O)[C@H](CCN)NC(=O)[C@@H](NC(=O)[C@H](CN)NC(=O)[C@@H](NC(=O)CCC(N)C2CCCCC2)[C@@H](C)O)CCNC(=O)[C@H]([C@@H](C)O)NC(=O)[C@H](CCN)NC(=O)[C@H](CCN)NC1=O` (stereo partly drawn) [Example 63, 4-amino-4-cyclohexylbutanoyl L-Thr-L-Dap-polymyxin [D-cyclohexylalanine]-6 heptapeptide.] (X22-T[Dap][Dab][Dab][dCha]L[Dab][Dab]T; lactam 3-C), in the test with Acinetobacter baumannii, the “MIC A. baumanii 053” value was found to be 64 µg/mL (≈ 57 µM), the “MIC A. baumanii 056” value is 32 µg/mL (≈ 28.5 µM), the “MIC A. baumanii ATCC BAA-747” value was 0.125 µg/mL (≈ 0.111 µM) and the “MIC A. baumanii NCTC 13424” value turned out to be 0.125 µg/mL (≈ 0.111 µM). For the same compound, in the test on Escherichia coli, the “MIC E. coli 058” value worked out at 4 µg/mL (≈ 3.56 µM), the “MIC E. coli 061” value amounted to 16 µg/mL (≈ 14.3 µM) and the “MIC E. coli ATCC 25922” value came out at 0.25 µg/mL (≈ 0.223 µM). In the test with Klebsiella pneumoniae, the “MIC K. pneumoniae 063” value is greater than 64 µg/mL, the “MIC K. pneumoniae 065” value is 4 µg/mL (≈ 3.56 µM) and the “MIC K. pneumoniae ATCC 13882” value is 0.125 µg/mL (≈ 0.111 µM). In addition, in the test with Pseudomonas aeruginosa, the “MIC P. aeruginosa 068” value was found to be 8 µg/mL (≈ 7.13 µM), the “MIC P. aeruginosa 070” value stood at 8 µg/mL (≈ 7.13 µM), the “MIC P. aeruginosa ATCC 27853” value worked out at 0.25 µg/mL (≈ 0.223 µM) and the “MIC P. aeruginosa CCUG 59347” value worked out at 0.5 µg/mL (≈ 0.445 µM).
